Measured values from patent US12703729B2, “GIP agonist compounds and methods” (Zealand Pharma A/S, priority 2014, dated 2026).
Starred links: 1 amine or outer side, 2 acyl side, 3 side chain; linkers in the order of their positions; H or OH if unused. Non-standard residues stand in square brackets, D forms with d. Residues, ends and D or L forms follow the SMILES beside them. Groups on a side chain read outwards from the residue. *: point of attachment. C20 diacid = O=C(O)CCCCCCCCCCCCCCCCCCC(=O)*; γGlu = O=C(O)[C@H](CCC(=O)[*:2])N[*:1]; AEEA = NCCOCCOCC(=O)O; Aib = CC(C)(N)C(=O)O

How the values were obtained:
[1] = target: human GLP-1 receptor (GLP-1R) (Homo sapiens, UniProt P43220); assay: Activity assay at human GLP-1 receptor, cAMP induction (AlphaScreen), Example 3
human GLP-1 receptor (GLP-1R), sequence (P43220 24-463): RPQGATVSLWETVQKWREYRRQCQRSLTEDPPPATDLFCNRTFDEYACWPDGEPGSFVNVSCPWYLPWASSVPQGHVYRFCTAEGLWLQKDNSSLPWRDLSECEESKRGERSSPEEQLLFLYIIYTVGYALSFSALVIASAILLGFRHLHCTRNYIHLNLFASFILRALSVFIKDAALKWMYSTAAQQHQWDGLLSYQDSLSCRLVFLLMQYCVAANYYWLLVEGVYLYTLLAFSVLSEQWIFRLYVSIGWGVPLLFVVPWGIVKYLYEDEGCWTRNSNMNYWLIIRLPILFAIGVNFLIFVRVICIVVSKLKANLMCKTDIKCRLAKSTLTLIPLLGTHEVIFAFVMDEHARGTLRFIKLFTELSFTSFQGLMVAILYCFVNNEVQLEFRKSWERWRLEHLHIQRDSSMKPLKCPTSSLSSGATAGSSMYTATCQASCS

human GIP R = target: T1, human GIP R (Homo sapiens, UniProt P48546); assay: cell-based
T1 sequence (P48546 22-466): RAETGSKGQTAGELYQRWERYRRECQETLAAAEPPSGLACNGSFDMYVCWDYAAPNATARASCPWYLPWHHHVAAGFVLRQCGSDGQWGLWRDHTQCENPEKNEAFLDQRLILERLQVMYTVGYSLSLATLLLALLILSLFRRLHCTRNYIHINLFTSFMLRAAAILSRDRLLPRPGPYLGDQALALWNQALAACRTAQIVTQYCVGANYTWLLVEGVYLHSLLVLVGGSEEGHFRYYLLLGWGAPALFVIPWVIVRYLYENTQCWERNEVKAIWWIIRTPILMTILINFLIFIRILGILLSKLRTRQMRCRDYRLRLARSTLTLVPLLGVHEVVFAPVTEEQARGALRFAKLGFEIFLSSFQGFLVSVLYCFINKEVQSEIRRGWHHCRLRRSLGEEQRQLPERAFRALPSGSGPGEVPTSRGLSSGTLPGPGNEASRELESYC

[2] = target: T2, human GIP receptor (GIP R) (Homo sapiens, UniProt P48546); assay: Activity assay at human GIP receptor, cAMP induction (AlphaScreen), Example 3
T2 sequence (P48546 22-466): T1 sequence (P48546 22-466)

Question: How did the EC50 [1] turn out when `CC[C@H](C)[C@H](NC(=O)[C@H](CCCCN)NC(=O)[C@H](CC(=O)O)NC(=O)[C@H](CC(C)C)NC(=O)[C@H](CCC(=O)O)NC(=O)[C@@H](NC(=O)[C@H](CO)NC(=O)[C@H](Cc1ccc(O)cc1)NC(=O)[C@H](CC(=O)O)NC(=O)[C@H](CO)NC(=O)[C@@H](NC(=O)[C@H](Cc1ccccc1)NC(=O)[C@@H](NC(=O)CNC(=O)[C@H](CCC(=O)O)NC(=O)C(C)(C)NC(=O)[C@@H](N)Cc1ccc(O)cc1)[C@@H](C)O)[C@@H](C)CC)[C@@H](C)CC)C(=O)N[C@@H](C)C(=O)N[C@@H](CCC(N)=O)C(=O)N[C@@H](CCCNC(=N)N)C(=O)N[C@@H](C)C(=O)N[C@@H](Cc1ccccc1)C(=O)N[C@H](C(=O)N[C@@H](CCC(=O)O)C(=O)N[C@@H](Cc1c[nH]c2ccccc12)C(=O)N[C@@H](CC(C)C)C(=O)N[C@@H](CC(C)C)C(=O)N[C@@H](C)C(=O)N[C@@H](CCC(N)=O)C(=O)NCC(=O)N1CCC[C@H]1C(=O)N[C@@H](CO)C(=O)N[C@@H](CO)C(=O)NCC(=O)N[C@@H](C)C(=O)N1CCC[C@H]1C(=O)N1CCC[C@H]1C(=O)N1CCC[C@H]1C(=O)N[C@@H](CO)C(=O)N[C@@H](CCCCNC(=O)COCCOCCNC(=O)COCCOCCNC(=O)CC[C@H](NC(=O)CCCCCCCCCCCCCCCCCCC(=O)O)C(=O)O)C(N)=O)[C@@H](C)CC` [Compound 28] (H-Y[Aib]EGTFISDYSIELDKIAQRAFIEWLLAQGPSSGAPPPSK([AEEA-AEEA-γGlu-C20 diacid])-NH2) was run?
Answer: > 3 nM

Question: What about the EC50 (human GIP R) of the same compound?
Answer: 0.007 nM

Question: What about the EC50 [2] of the same compound?
Answer: 0.013 nM

Question: Which results are given for `CC[C@H](C)[C@H](NC(=O)[C@H](CO)NC(=O)[C@H](Cc1ccc(O)cc1)NC(=O)[C@H](CC(=O)O)NC(=O)[C@H](CO)NC(=O)[C@@H](NC(=O)[C@H](Cc1ccccc1)NC(=O)[C@@H](NC(=O)CNC(=O)[C@H](CCC(=O)O)NC(=O)C(C)(C)NC(=O)[C@@H](N)Cc1ccc(O)cc1)[C@@H](C)O)[C@@H](C)CC)C(=O)N[C@@H](CCC(=O)O)C(=O)N[C@@H](CC(C)C)C(=O)N[C@@H](CC(=O)O)C(=O)N[C@@H](CCCCN)C(=O)N[C@@H](CCCCNC(=O)COCCOCCNC(=O)COCCOCCNC(=O)CC[C@H](NC(=O)CCCCCCCCCCCCCCCCCCC(=O)O)C(=O)O)C(=O)N[C@@H](C)C(=O)N[C@@H](C)C(=O)N[C@@H](CCC(N)=O)C(=O)N[C@@H](C)C(=O)N[C@@H](Cc1ccccc1)C(=O)N[C@H](C(=O)N[C@@H](CC(N)=O)C(=O)N[C@@H](Cc1c[nH]c2ccccc12)C(=O)N[C@@H](CC(C)C)C(=O)N[C@@H](CC(C)C)C(=O)N[C@@H](C)C(=O)NCC(=O)N1CCC[C@H]1C(=O)N[C@@H](CO)C(=O)N[C@@H](CO)C(=O)NCC(=O)N[C@@H](C)C(=O)N1CCC[C@H]1C(=O)N1CCC[C@H]1C(=O)N1CCC[C@H]1C(=O)N[C@@H](CO)C(N)=O)C(C)C` [Compound 29] (H-Y[Aib]EGTFISDYSIELDKK([AEEA-AEEA-γGlu-C20 diacid])AAQAFVNWLLAGPSSGAPPPS-NH2)?
Answer: EC50 [1]: > 100 nM; EC50 (human GIP R): 0.014 nM; EC50 [2]: 0.007 nM
